Where a name gives a salt, the structure may show the parent alone.
Columns and labels:
[1] = Measurements of bulk density of mono- and dihydrochloride salts of Cobicistat; format: physicochemical; conditions: for volume filled by the salt in a glass cylinder (bulk density): about 0.30 g freely poured into glass cylinder without compaction, FIG. 12
Source text: Measurements of Bulk Density of Mono-and Dihydrochloride Salts of Cobicistat:
Cobicistat monohydrochloride and dihydrochloride, prepared according to examples 7 and 5 respectively, (about 0.30 g) were freely poured into two glass cylinders without compaction. While 0.30 g of Cobicistat monohydrochloride filled a volume of almost 5m1, 0.30 g of Cobicistat dihydrochloride filled a volume of less than 2m1.

[2] = Powder flowability / handling properties of Cobicistat hydrochloride salts; format: physicochemical; conditions: particle-shaped morphology, FIG. 9

| volume filled by the salt in a glass cylinder (bulk density) [1] | bulk density compared with the monohydrochloride salt ([1]; as demonstrated in FIG. 12) | flowability of the powder material [2] | SMILES |
| --- | --- | --- | --- |
| ~5 m1 | – | – | CC(C)c1nc(CN(C)C(=O)N[C@@H](CCN2CCOCC2)C(=O)N[C@H](CC[C@H](Cc2ccccc2)NC(=O)OCc2cncs2)Cc2ccccc2)cs1 [Cobicistat monohydrochloride, reference compound] |
| less than 2 m1 | substantially higher | highly flowable | CC(C)c1nc(CN(C)C(=O)N[C@@H](CCN2CCOCC2)C(=O)N[C@H](CC[C@H](Cc2ccccc2)NC(=O)OCc2cncs2)Cc2ccccc2)cs1 [Cobicistat dihydrochloride] |
